Molecules are shown by their SMILES. Like-named read-outs stand apart in the source and are kept apart here. Non-standard residues stand in square brackets, D forms with d. Residues, ends and D or L forms follow the SMILES beside them. *: point of attachment. NMeD = CN[C@@H](CC(=O)O)C(=O)O; Bn = c1ccc(C*)cc1; Sar = CNCC(=O)O

The assay has as its target Sushi domains (SD1/2) protein. In words: Fluorescence polarization (FP) competition assay with AJAP-1probe, calculated Ki. It counts as binding. A digest of the protocol:
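Ki values were derived from IC50s (sigmoidal fits, ≥ triplicate), with probe Kd obtained by saturation titration of SD1/2. Peptides displaced a 25 nM TAMRA-labelled probe; polarization read at 530/580 nm in 1% BSA-containing PBS, pH 7.4, room temperature.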

[1] abbreviates: Table 10, deep mutational scanning validation variants of APPWT, read-out: Ki (nM) mean ± SEM.
The mark [2] stands for this setting: Table 13, peptides for affinity maturation, read-out: Ki (nM) mean ± SEM.
Where [3] appears, read: Table 5, elongation and truncation scan of AJAP-1 binding epitope, read-out: Ki (nM) mean ± SEM.
The mark [4] stands for this setting: Table 11, deep mutational scanning validation variants of AJAP-1WT, read-out: Ki (nM) mean ± SEM.
Where [5] appears, read: Table 1, affinity maturation, mean ± SEM, n ≥ 3, read-out: Ki.

In the case of `CC(=O)N[C@@H](CCC(=O)O)C(=O)N[C@@H](CC(=O)O)C(=O)N[C@@H](CC(=O)O)C(=O)N[C@@H](CO)C(=O)N[C@@H](CC(=O)O)C(=O)N[C@H](C(=O)N[C@@H](Cc1ccc(O)cc1)C(=O)N[C@@H](Cc1c[nH]c2ccccc12)C(=O)NCC(=O)NCC(=O)N[C@@H](C)C(=O)N[C@@H](CC(=O)O)C(=O)N[C@H](C(=O)N[C@@H](CC(=O)O)C(N)=O)[C@@H](C)O)C(C)C` (Ac-EDDSDVYWGGADTD-NH2), the Ki under setting [1] is 3600 ± 49 nM.
Consider `CC(=O)N[C@@H](CCC(=O)O)C(=O)N[C@@H](CC(=O)O)C(=O)N(C)[C@@H](CC(=O)O)C(=O)N[C@@H](CO)C(=O)N[C@@H](CC(=O)O)C(=O)N[C@H](C(=O)N[C@@H](Cc1c[nH]c2ccccc12)C(=O)N[C@@H](Cc1c[nH]c2ccccc12)C(=O)NCC(=O)NCC(=O)N[C@@H](C)C(=O)N[C@@H](CC(=O)O)C(=O)N[C@H](C(=O)N[C@@H](CC(=O)O)C(N)=O)[C@@H](C)O)C(C)C` (Ac-ED[NMeD]SDVWWGGADTD-NH2), for which the Ki (Table 7, Ala-, D-amino acids and N-methylation scans of APPWT, read-out: Ki (nM) mean ± SEM) is 671 ± 27 nM.
As for `CC[C@H](C)[C@H](NC(=O)[C@H](Cc1ccccc1)NC(=O)[C@H](CCC(=O)O)NC(=O)[C@@H](NC(=O)[C@H](CCC(=O)O)NC(C)=O)[C@@H](C)O)C(=O)N[C@@H](C)C(=O)N[C@@H](Cc1c[nH]c2ccccc12)C(=O)NCC(=O)N1CCC[C@H]1C(=O)N[C@H](C(=O)N[C@H](C(=O)N[C@@H](CO)C(=O)N[C@@H](CCCNC(=N)N)C(=O)N[C@@H](CCC(=O)O)C(=O)N[C@@H](CC(=O)O)C(N)=O)C(C)C)[C@@H](C)O` [ETEFIAWGPTVSRED] (Ac-ETEFIAWGPTVSRED-NH2), under setting [2], the Ki was 148 ± 6 nM.
Regarding `CC[C@H](C)[C@H](NC(=O)[C@H](Cc1ccccc1)NC(=O)[C@H](CCC(=O)O)NC(=O)[C@@H](NC(=O)[C@H](CCC(=O)O)NC(=O)[C@@H](NC(C)=O)[C@@H](C)O)[C@@H](C)O)C(=O)N[C@@H](C)C(=O)N[C@@H](Cc1c[nH]c2ccccc12)C(=O)NCC(=O)N1CCC[C@H]1C(=O)N[C@H](C(=O)NCC(=O)N[C@@H](CC(=O)O)C(=O)N[C@@H](CCC(=O)O)C(N)=O)[C@@H](C)O` (Ac-TETEFIAWGPTGDE-NH2), the Ki under setting [3] is 69 ± 1 nM.
Consider `CC(=O)N[C@@H](CCC(=O)O)C(=O)N[C@@H](CC(=O)O)C(=O)N[C@@H](CC(=O)O)C(=O)N[C@@H](CO)C(=O)N[C@@H](CC(=O)O)C(=O)N[C@H](C(=O)N[C@@H](Cc1c[nH]c2ccccc12)C(=O)N[C@@H](Cc1c[nH]c2ccccc12)C(=O)N[C@@H](Cc1ccc(O)cc1)C(=O)N(C)CC(=O)N[C@H](C(=O)NCC(=O)N[C@@H](CC(=O)O)C(=O)N[C@@H](CCC(=O)O)C(=O)N[C@@H](CC(=O)O)C(N)=O)[C@@H](C)O)C(C)C` (Ac-EDDSDVWWY[Sar]TGDED-NH2), for which the Ki under setting [2] was 142 ± 3 nM.
On to `CC[C@H](C)[C@H](NC(=O)[C@H](Cc1ccccc1)NC(=O)[C@H](CCC(=O)O)NC(=O)[C@@H](NC(=O)[C@H](CCC(=O)O)NC(C)=O)[C@@H](C)CC)C(=O)N[C@@H](C)C(=O)N[C@@H](Cc1c[nH]c2ccccc12)C(=O)NCC(=O)N1CCC[C@H]1C(=O)N[C@H](C(=O)NCC(=O)N[C@@H](CC(=O)O)C(=O)N[C@@H](CCC(=O)O)C(=O)N[C@@H](CC(=O)O)C(N)=O)[C@@H](C)O` [EIEFIAWGPTGDED], for which the Ki under setting [4] is 22 ± 1 nM.
With `CC[C@H](C)[C@H](NC(=O)[C@H](Cc1ccccc1)NC(=O)[C@H](CCC(=O)O)NC(=O)[C@@H](NC(=O)[C@H](CCC(=O)O)NC(C)=O)[C@@H](C)O)C(=O)N[C@@H](C)C(=O)N[C@@H](Cc1c[nH]c2ccccc12)C(=O)N[C@@H](Cc1ccc(O)cc1)C(=O)NCC(=O)N[C@@H](C)C(=O)N[C@@H](CC(=O)O)C(=O)N[C@H](C(=O)N[C@@H](CC(=O)O)C(N)=O)[C@@H](C)O` [Peptide 37] (Ac-ETEFIAWYGADTD-NH2), the Ki is 95 ± 5 nM under setting [5] and 95 ± 5 nM under setting [2].
With `CC[C@H](C)[C@H](NC(=O)[C@H](Cc1ccccc1)NC(=O)[C@H](CCC(=O)O)NC(=O)[C@@H](NC(=O)[C@H](CCC(=O)O)NC(=O)[C@@H](NC(C)=O)[C@@H](C)O)[C@@H](C)O)C(=O)N[C@@H](C)C(=O)N[C@@H](Cc1c[nH]c2ccccc12)C(=O)NCC(=O)N1CCC[C@H]1C(N)=O` (Ac-TETEFIAWGP-NH2), under setting [3], the Ki is 574 ± 7 nM.
Consider `CC[C@H](C)[C@H](NC(=O)[C@H](Cc1ccccc1)NC(=O)[C@H](CCC(=O)O)NC(=O)[C@@H](NC(=O)[C@H](CCC(=O)O)NC(C)=O)[C@@H](C)O)C(=O)N[C@@H](C)C(=O)N[C@@H](Cc1c[nH]c2ccccc12)C(=O)NCC(=O)NCC(=O)N[C@@H](C)C(=O)N[C@@H](CC(=O)O)C(=O)N[C@H](C(=O)N[C@@H](CC(=O)O)C(N)=O)[C@@H](C)O` [Peptide Y] (Ac-ETEFIAWGGADTD-NH2), for which the Ki is, setting by setting: under setting [5], 354 ± 9 nM; under setting [2], 345 ± 9 nM.
For the compound `CC[C@H](C)[C@H](NC(=O)[C@H](C)NC(=O)[C@H](Cc1c[nH]c2ccccc12)NC(=O)[C@@H]1CCCN1C(=O)[C@H](Cc1ccc(O)cc1)NC(=O)[C@H](CCC(N)=O)NC(C)=O)C(=O)N[C@H](C(=O)N[C@@H](Cc1c[nH]c2ccccc12)C(=O)NCC(=O)N1CCC[C@H]1C(=O)N[C@H](C(=O)N[C@H](C(=O)N[C@@H](CO)C(=O)N[C@@H](CCCNC(=N)N)C(=O)N[C@@H](CCC(=O)O)C(=O)N[C@@H](CC(=O)O)C(=O)NCC(N)=O)C(C)C)[C@@H](C)O)C(C)C` (Ac-QYPWAIVWGPTVSREDG-NH2), under “Table 6, elongation and truncation scan of PIANP binding epitope, read-out: Ki (nM) mean ± SEM”, the Ki is 650 ± 9 nM.
With `CC[C@H](C)[C@H](NC(=O)[C@H](CO)NC(=O)[C@H](CC(=O)O)NC(=O)[C@H](CC(=O)O)NC(=O)[C@H](CCC(=O)O)NC(C)=O)C(=O)N[C@H](C(=O)N[C@@H](Cc1c[nH]c2ccccc12)C(=O)N[C@@H](Cc1c[nH]c2ccccc12)C(=O)NCC(=O)NCC(=O)N[C@@H](C)C(=O)N[C@@H](CC(=O)O)C(=O)N[C@H](C(=O)N[C@@H](CC(=O)O)C(N)=O)[C@@H](C)O)C(C)C` (Ac-EDDSIVWWGGADTD-NH2), under setting [1], the Ki is 243 ± 3 nM.
Consider `CC(=O)N[C@@H](CCC(=O)O)C(=O)N[C@@H](CC(=O)O)C(=O)N[C@@H](CC(=O)O)C(=O)N[C@@H](CO)C(=O)N[C@@H](Cc1ccc(OCc2ccccc2)cc1)C(=O)N[C@H](C(=O)N[C@@H](Cc1c[nH]c2ccccc12)C(=O)N[C@@H](Cc1c[nH]c2ccccc12)C(=O)NCC(=O)NCC(=O)N[C@@H](C)C(=O)N[C@@H](CC(=O)O)C(=O)N[C@H](C(=O)N[C@@H](CC(=O)O)C(N)=O)[C@@H](C)O)C(C)C` (Ac-EDDSY(Bn)VWWGGADTD-NH2), for which the Ki is, setting by setting: (Table 16, ncAAs incorporated peptides, read-out: Ki (nM) mean ± SEM) 28 ± 1 nM; (purified peptides, read-out: Ki) 27.1 nM. For the setting “relative to Asp207Trp mutant of APPWT”, the “fold increased affinity compared to Asp207Trp” value is given as 4 fold.
Turning to `CC[C@H](C)[C@H](NC(=O)[C@H](Cc1c[nH]c2ccccc12)NC(=O)[C@H](CCC(=O)O)NC(=O)[C@@H](NC(=O)[C@H](CCC(=O)O)NC(C)=O)[C@@H](C)O)C(=O)N[C@@H](C)C(=O)N[C@@H](Cc1c[nH]c2ccccc12)C(=O)NCC(=O)N1CCC[C@H]1C(=O)N[C@H](C(=O)NCC(=O)N[C@@H](CC(=O)O)C(=O)N[C@@H](CCC(=O)O)C(=O)N[C@@H](CC(=O)O)C(N)=O)[C@@H](C)O` [ETEWIAWGPTGDED] (Ac-ETEWIAWGPTGDED-NH2), under setting [4], the Ki was 35 ± 2 nM.
Still for that read-out and setting: in the case of `CC[C@H](C)[C@H](NC(=O)[C@H](Cc1ccccc1)NC(=O)[C@H](CCC(=O)O)NC(=O)[C@@H](NC(=O)[C@H](CCC(=O)O)NC(C)=O)[C@@H](C)O)C(=O)N[C@@H](C)C(=O)N[C@@H](Cc1c[nH]c2ccccc12)C(=O)NCC(=O)N1CCC[C@H]1C(=O)N[C@H](C(=O)NCC(=O)N[C@@H](Cc1c[nH]cn1)C(=O)N[C@@H](CCC(=O)O)C(=O)N[C@@H](CC(=O)O)C(N)=O)[C@@H](C)O` [ETEFIAWGPTGHED] (Ac-ETEFIAWGPTGHED-NH2) it was 60 ± 4 nM.
Take `CC(=O)N[C@@H](CCC(=O)O)C(=O)N[C@@H](CCC(=O)O)C(=O)N[C@@H](CC(=O)O)C(=O)N[C@@H](CC(=O)O)C(=O)N[C@@H](CO)C(=O)N[C@@H](CC(=O)O)C(=O)N[C@H](C(=O)N[C@@H](Cc1c[nH]c2ccccc12)C(=O)N[C@@H](Cc1c[nH]c2ccccc12)C(=O)NCC(=O)NCC(=O)N[C@@H](C)C(=O)N[C@@H](CC(=O)O)C(=O)N[C@H](C(=O)N[C@@H](CC(=O)O)C(=O)N[C@@H](Cc1ccc(O)cc1)C(=O)N[C@@H](C)C(=O)N[C@@H](CC(=O)O)C(=O)NCC(=O)NCC(=O)N[C@@H](CCC(=O)O)C(=O)N[C@@H](CC(=O)O)C(N)=O)[C@@H](C)O)C(C)C` (Ac-EEDDSDVWWGGADTDYADGGED-NH2): the Ki (Table 4, truncation and elongation scans of APP epitope, read-out: Ki (nM) mean ± SEM) is 356 ± 11 nM.
With `CC[C@H](C)[C@H](NC(=O)[C@H](Cc1c[nH]c2ccccc12)NC(=O)[C@H](CC(=O)O)NC(=O)[C@H](CC(=O)O)NC(=O)[C@H](CC(=O)O)NC(=O)[C@H](CCC(=O)O)NC(=O)[C@H](CCCNC(=N)N)NC(=O)[C@H](CCCNC(=N)N)NC(=O)[C@H](CCCNC(=N)N)NC(=O)[C@H](CCCNC(=N)N)NC(=O)[C@H](CCCNC(=N)N)NC(=O)[C@H](CCCNC(=N)N)NC(C)=O)C(=O)N[C@@H](CC(=O)O)C(=O)N[C@@H](Cc1c[nH]c2ccccc12)C(=O)N[C@@H](Cc1ccc(O)cc1)C(=O)N[C@@H](CC(=O)O)C(=O)N[C@@H](CO)C(=O)N[C@@H](CC(=O)O)C(=O)N[C@@H](CC(=O)O)C(=O)N[C@@H](CC(=O)O)C(N)=O` (Ac-RRRRRREDDDWIDWYDSDDD-NH2), the Ki (Table 14, CPPs tagged peptides, read-out: Ki (nM) mean ± SEM) is 70.9 ± 1 nM.
As for `CC(=O)N[C@@H](CCC(=O)O)C(=O)N[C@@H](CC(=O)O)C(=O)N[C@@H](CC(=O)O)C(=O)N[C@@H](Cc1c[nH]c2ccccc12)C(=O)N[C@@H](CC(=O)O)C(=O)N[C@H](C(=O)N[C@@H](Cc1c[nH]c2ccccc12)C(=O)N[C@@H](Cc1c[nH]c2ccccc12)C(=O)NCC(=O)NCC(=O)N[C@@H](C)C(=O)N[C@@H](CC(=O)O)C(=O)N[C@H](C(=O)N[C@@H](CC(=O)O)C(N)=O)[C@@H](C)O)C(C)C` (Ac-EDDWDVWWGGADTD-NH2), the Ki under setting [1] is 257 ± 4 nM.

The record behind these values is patent US20260193293A1, “PEPTIDES CAPABLE OF INHIBITING PROTEIN-PROTEIN INTERACTIONS AT GABAB1A SUBUNIT AND USES THEREOF” (UNIVERSITY OF COPENHAGEN, priority 2022, published 2026).
